We go through one molecule from patent US9258995B2, “Organ cold storage composition and methods of use” (BOARD OF TRUSTEES OF THE UNIVERSITY OF ARKANSAS, priority 2009, dated 2016).

One assay relates to rat kidneys. Put plainly: Nitrotyrosine immunohistochemistry during CS. The following applies: 4 h CS, 100 μM. As for the experimental part: All animals were treated according to the National Institutes of Health Guide for the Care and Use of Laboratory Animals and the University of Arkansas for Medical Sciences Institutional Animal Care and Use Committee guidelines. Male Fischer 344 inbred rats (Charles Rivers Laboratories, Inc., Wilmington, Mass.) weighing between 250 and 300 g were anesthetized with ethrane, followed by shaving and prepping with betadine. […] Bulldog clamps were placed on the aorta and vena cava (proximal and distal to the renal vessels) to prevent blood flow to the kidneys. A 22-gauge surgical needle was used to puncture the rat's aorta to flush the renal grafts with saline (10 ml per kidney) using a small catheter. Once the kidneys started to turn light brown (perfusion), another vent was formed in the vena cava to allow blood flow from the kidneys. […]
NRK cells (groups 1-4) were assessed for nitrotyrosine formation as previously described. […] Nitrotyrosine staining was evaluated and captured with equal exposure times using a Nikon Eclipse 800 microscope (40×oil). Images were quantified by averaging the mean intensity fluorescence of five random cells in three different fields using Nikon N is Elements software. Renal tissue sections were assessed for the presence of nitrotyrosine protein adducts by nitrotyrosine immunohistochemistry. […]

The test system of assay [1] is porcine renal mitochondrial respiratory complex II/III. Put plainly: Mitochondrial respiratory complex activity, porcine ex vivo renal model. Also on record: protection of porcine complex II/III: dose or concentration left out as unconfirmed. As for the experimental part: FIG. 15 depicts graphs showing activities or (A) porcine renal mitochondrial respiratory complex I, (B) activities or porcine renal mitochondrial respiratory complex II/III, and (C) activities or porcine renal mitochondrial respiratory complex IV, after MitoQ treatment. MitoQ ([…]) protected porcine complex II/III following 24 hr cold preservation. Values are expressed as mean SEM (n=4).
Mitochondrial respiratory complex activity was also evaluated in the porcine ex vivo renal model at 24-h and 48-h CS. […] Protection of Complex II/III by MitoQ (100 μM) was significant following 24-h cold preservation.

Another assay concerns NRK cells. The assay can be described thus: Available nitric-oxide levels, CS NRK cell model. The class given is cell-based, rat. The following applies: 4-h CS (data not shown). The text has this: Nitric oxide is a free radical that is well known to interact with superoxide to form peroxynitrite. It is generated by nitric-oxide synthase (NOS) and is an important signaling molecule in many physiological processes. Few reports have evaluated the effect of cold ischemia alone on NOS protein levels or activity.

The subject of assay [2] is mitochondrial respiratory complex I. Put plainly: Mitochondrial respiratory complex activity, NRK cell mitochondria after CS. The format is cell-based, rat. The following applies: NRK cells, 4-h CS, 1 μM. The method, then: (§1) Normal rat kidney proximal tubular cells (NRK-52E; American Type Culture Collection, Manassas, Va.) were maintained in six-well 100 or 150-mm, or 150-mm plates in a humidified incubator gassed with 5% CO2 and 95% air at 37° C. in DMEM (Invitrogen, Carlsbad, Calif.) containing 5% fetal calf serum (FCS). Cells were grown to 60% confluence and divided into four treatment groups: 1) untreated (Untx), 2) CS, 3) CS+MitoQ, and 4) CS+DecylTPP. Untreated cells remained at 37° C. in DMEM containing 5% FCS (group 1). CS was initiated by washing cells with cold PBS (Invitrogen) twice and storing them in UW/Viaspan solution alone (4 h at 4° C.) (group 2), CS+MitoQ (1 μM) (group 3), or CS+DecylTPP (1 μM) (group 4). In separate experiments, cells were exposed to CS plus RW by replacing UW solution alone or UW solution containing MitoQ or DecylTPP with DMEM containing 5% FCS overnight (18 h at 37° C.).
(§2) NRK cell and rat kidney mitochondria were isolated by centrifugation on a sucrose density gradient. The activity of mitochondrial respiratory complexes I, II, III, or IV were assayed spectrophotometrically using 100 μg of mitochondrial protein at 30° C. as previously described.

The subject of assay [3] is mitochondrial respiratory complex II. The description is as above. The class given is cell-based, rat. The note with it: NRK cells, 4-h CS, 1 μM. The method, then: as §1, §2

With `COC1=C(OC)C(=O)C(CCCCCCCCCC[P+](c2ccccc2)(c2ccccc2)c2ccccc2)=C(C)C1=O` [MitoQ, mitoquinone], the “nitrotyrosine formation (immunohistochemistry)” value in the assay with rat kidneys was “less nitrotyrosine formation”. Further, the “protection of Complex II/III activity, 24-h versus 48-h CS” value in assay [1] (porcine ex vivo renal model) is recorded as “at 24-h better than at 48-h”. The “Protection of Complex II/III” value in assay [1] (porcine kidneys, 24-h cold preservation, MitoQ (100 μM)) is recorded as “significant”. Also, the “protection of porcine complex II/III” value in assay [1] (porcine kidneys, 24 hr cold preservation) is reported as “protected”. For the same molecule, in the assay on NRK cells, the available nitric-oxide levels result was “no effect”. In addition, in assay [2], the “complex I inactivation” value was “completely prevented”. Moreover, the “complex II inactivation” value in assay [3] is “completely prevented”.
